{
  "source": "patent EP1007066B1",
  "about": "“SCREENING METHODS FOR GLUCOCORTICOID RECEPTOR BINDING SUBSTANCES USING TRYPTERYGIUM WILFORDII PREPARATIONS” (priority 1996, dated 1998)",
  "key": {"T cells": {"tested_on": "T cells", "experiment": "Antigen (SK)-induced T cell proliferation (wilforonide)", "type": "cell-based", "protocol": "T cells were cultured with or without SK (1 ng/ml) or SK + IL-2 (50 u/ml) or SK + PMA (0.2 ng/ml) in the presence or absence of the following concentrations of wilforonide: 10 ng/ml, 50 ng/ml, 100 ng/ml, 500 ng/ml or 1,000 ng/ml. The cells were allowed to culture for five days. The cultures were pulsed with [^3H]-thymidine for the last 24 hours of culture. […] ID50 were calculated based on the regression formula by using the fx-3600 calculator. T cells cultured with SK or SK + IL-2 or SK + PMA gave cpm of 1.87 x 10^3, 4.99 x 10^3 and 6.67 x 10^3, respectively."}, "PHA-stimulated T cells [1]": {"tested_on": "PHA-stimulated T cells", "experiment": "Viability of PHA-stimulated T cells (924)", "type": "cell-based", "protocol": "A 924 fraction concentration of 1,000 ng/ml was only slightly more toxic to cell viability as compared to the 0 ng/ml dose (see FIG. 20D, 0 ng/ml = 22% of control; 1,000 ng/ml fraction 924 = […] of control cell viability)."}, "IL-2": {"tested_on": "IL-2", "experiment": "PHA-induced IL-2 production (wilforonide, CTLL-2 readout)", "type": "cell-based", "conditions": "PHA 1 µg/ml, overnight", "protocol": "The effects of wilforonide on IL-2 production was also examined. T cells were cultured with or without PHA(1 microgram/ml) in the presence or absence of 0 (control), 10 ng/ml, 50 ng/ml, 100 ng/ml or 200 ng/ml wilforonide overnight. Cell-free supernatants were diluted 1 to 80 and the IL-2 content assayed with CTLL-2 cells."}, "Solubility of 924": {"experiment": "Solubility of 924", "type": "physicochemical", "conditions": "ethanol and chloroform", "protocol": "The dried woody skinned part of the root of TwHF was extracted with ethanol. The solution was concentrated at reduced pressure, and the residue was dissolved in ethyl acetate. This solution was passed through Al2O3 with ethanol as an eluent. The eluate was evaporated and the residue chromatographed on silica gel with chloroform, chloroform-ether and ethyl acetate as successive eluent. The fractions eluted with chloroform-ether were purified on a preparative HPLC column packed with Nova-Pak C18 and equipped with a 214 detector. Methanol-water was the mobile phase. A fraction having positive reaction to Kedde reagent was collected and extracted with chloroform. The chloroform solution was evaporated to dryness and the residue crystallized in dichloromethane-hexane to yield 924."}, "IL-2R": {"tested_on": "IL-2R", "experiment": "IL-2R expression by PHA-activated T cells (924)", "type": "cell-based", "conditions": "500 ng/ml", "excerpt": "There was no effect of \"924\" on IL-2R expression by PHA-activated T cells."}, "PHA-stimulated T cells [2]": {"tested_on": "PHA-stimulated T cells", "experiment": "PHA-induced T cell proliferation (924 / wilforonide)", "type": "cell-based", "conditions": "PHA 0.5 µg/ml, 3 days", "excerpt": "The molecular groups responsible for the immune suppressive function of these compounds are unknown, however, the core structure of diterpenoids which may be related to their activity consists of an α-β-unsaturated 5 element lactone which can be identified by Kedde reagents. HPLC was used to fractionate the ethyl acetate extract of TwHF and the Kedde reagents were employed to trace the fractions. Then, the effect of selected fractions on the in vitro IL-2 production and [^3H]-thymidine incorporation by PHA-activated T cells was determined. Fractions that inhibit these T cell functions were selected and the chromatographic pattern was identified with HPLC. One fraction was further purified with HPLC and crystallized repeatedly; a pure, crystallized compound was obtained and designated \"924\".\n[^3H]-thymidine was added for the last 14 hours of culture. Each concentration was run in quadruplicate (4 times) and the results for each concentration averaged to provide a mean. The mean cpm x 10^3 values were combined and expressed as a percent of T cell inhibition."}, "human GR": {"target": "T1, human GR (Homo sapiens, UniProt P04150)", "T1 construct": "host or cells: COS-7", "T1 sequence (P04150 1-777)": "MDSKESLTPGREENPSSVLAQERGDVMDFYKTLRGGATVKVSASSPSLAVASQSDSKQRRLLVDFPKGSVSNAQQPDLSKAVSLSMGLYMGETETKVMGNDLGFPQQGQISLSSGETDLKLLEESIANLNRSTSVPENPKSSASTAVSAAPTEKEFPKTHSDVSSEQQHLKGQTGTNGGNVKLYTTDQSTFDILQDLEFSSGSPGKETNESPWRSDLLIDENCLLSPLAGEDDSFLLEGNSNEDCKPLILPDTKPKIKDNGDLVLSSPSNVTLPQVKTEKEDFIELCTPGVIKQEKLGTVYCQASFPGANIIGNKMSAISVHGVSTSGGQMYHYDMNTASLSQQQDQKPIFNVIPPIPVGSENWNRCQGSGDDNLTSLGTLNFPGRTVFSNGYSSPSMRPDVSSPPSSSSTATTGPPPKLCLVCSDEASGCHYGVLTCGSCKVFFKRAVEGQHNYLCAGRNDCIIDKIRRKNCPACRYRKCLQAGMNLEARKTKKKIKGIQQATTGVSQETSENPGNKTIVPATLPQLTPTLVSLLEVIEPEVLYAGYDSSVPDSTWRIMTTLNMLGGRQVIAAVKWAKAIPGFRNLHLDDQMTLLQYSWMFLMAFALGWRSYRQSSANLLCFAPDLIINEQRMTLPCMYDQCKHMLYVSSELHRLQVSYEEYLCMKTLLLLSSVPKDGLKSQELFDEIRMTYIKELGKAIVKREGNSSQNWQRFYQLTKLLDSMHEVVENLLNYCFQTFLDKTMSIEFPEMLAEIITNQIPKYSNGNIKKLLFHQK", "experiment": "GR mediated gene activation, MMTV-luciferase in COS-7 cells, with dexamethasone", "type": "cell-based", "conditions": "for GR-mediated activation of target gene (MMTV-luciferase): dexamethasone-induced", "protocol": "Cell transfections and assays of GR mediated gene activation. COS-7 cells were maintained in culture in DMEM-10% bovine calf serum. […] Cells were plated at 10^6 cells per 10 cm plate. Twenty-four hours later, the cells were transfected with 500 ng pRShGrα, a GR expression vector (obtained from the Salk Institute, La Jolla, CA) and 10 µg of pMMTV-luciferase, a synthetic reporter gene. However, other expression vectors and synthetic reporter genes available to those of skill in the art may be used for transfection. The vector pMMTV-luciferase contains the luciferase gene under regulatory control of glucocorticoid-inducible elements in the MMTV-long terminal repeat. Cells were transfected using the calcium-phosphate precipitation technique (mammalian transfection kit, Stratagene, La Jolla, CA). […] Twenty-four hours later, the cells were washed, harvested, and lysates prepared by three cycles of freeze/thawing. The lysates were cleared by centrifugation at 12,000 x g for 5 minutes; aliquots were assayed for protein content and equal amounts of proteins were used for luciferase assays.\nCOS-7 cells were transfected with a human GR expression vector and the MMTV-luciferase reporter gene construct. A parallel set of plates was transfected with the constitutively active RSV-luciferase construct. […] Cells were lysed after 24 hours and assayed for luciferase activity."}, "in vitro": {"experiment": "in vitro", "type": "cell-based", "protocol": "The cells were assayed for cell viability by using a cytoflowmeter (FACSCAN) after the cells were stained with propidium iodine. […]"}, "IDH4 cells": {"tested_on": "IDH4 cells", "experiment": "Dexamethasone dependent growth of IDH4 cells (3H-thymidine)", "type": "cell-based, human", "conditions": "for [3H]-thymidine incorporation of IDH4 cells: without stimulation 16,391; for dexamethasone dependent growth of IDH4 cells: 72 hours", "protocol": "IDH4 cells, that express endogenous glucocorticoid receptors, were produced by transfecting human fibroblasts with a plasmid containing the MMTV-long terminal repeat driving the SV40 large T antigen. Since extended growth of these cells is dependent on expression of the large T antigen, these cells require exogenous glucocorticoid to maintain proliferation.\n[^3H]-Thymidine was present for the last 16 h. Data represent the mean % inhibition of [^3H]-thymidine incorporation of three replicate determinations of three separate experiments."}, "cyclooxygenase 2 (COX-2)": {"tested_on": "cyclooxygenase 2 (COX-2)", "experiment": "LPS (endotoxin) induced PGE2 production by monocytes", "type": "cell-based, human", "conditions": "LPS 10 µg/ml, 18 hours", "experimental": "After 18 hours of incubation, cell-free supernatants were collected and assayed for PGE2 content with a radioimmunoassay kit (Amersham), as described by the manufacturer. […] Human monocytes produce prostaglandinE2 (PGE2) when stimulated with bacterial endotoxin."}, "U937 cells": {"tested_on": "U937 cells", "experiment": "PGE2 production by LPS-activated U937 cells", "type": "cell-based, human", "excerpt": "This reflected marked suppression of the induction ofmRNA for cycloxygenase -2 (COX-2). […] This may contribute to its capacity to suppress autoimmune and inflammatory diseases."}},
  "data": [
    {"smiles": "C[C@]12CCC3=C(COC3=O)[C@@H]1CCC(=O)C2", "note": "(relative stereo) [wilforonide, naphtho-[1,2-c] furan-3,7(1H,5H)-dione, 4,5a,6,8,9,9a-hexahydro-5a-methyl-(5aR-trans)-]", "values": [
      {"measurement": "ID50, antigen-induced T cell proliferation", "setting": "T cells; SK", "result": 0.12712, "unit": "µg/mL"},
      {"measurement": "ID50, antigen-induced T cell proliferation", "setting": "T cells; SK+IL-2", "result": 0.476, "unit": "µg/mL"},
      {"measurement": "ID50, antigen-induced T cell proliferation", "setting": "T cells; SK+PMA", "result": 0.613, "unit": "µg/mL"},
      {"measurement": "viability of PHA-stimulated T cells", "setting": "PHA-stimulated T cells [1]; 1 ng/ml up to 1000 ng/ml", "result": "did not affect"},
      {"measurement": "cell viability", "setting": "PHA-stimulated T cells [1]; 1,000 ng/ml", "result": "35 % of control"},
      {"measurement": "ID50, PHA-induced IL-2 production", "setting": "IL-2", "result": 0.04211, "unit": "µg/mL"},
      {"measurement": "solubility", "setting": "Solubility of 924", "result": "soluble"},
      {"measurement": "IL-2R expression by PHA-activated T cells", "setting": "IL-2R", "result": "did not affect"},
      {"measurement": "ID50, PHA-induced T cell proliferation", "setting": "PHA-stimulated T cells [2]", "result": 0.3913, "unit": "µg/mL"},
      {"measurement": "cpm x 10^3 (experiments 1.-4.)", "setting": "PHA-stimulated T cells [2]; Wilforonide 50 ng/ml", "result": 57.0, "unit": "cpm x 10^3"}
    ]},
    {"smiles": "CC(C)[C@]12O[C@H]1[C@@H]1O[C@]13[C@]1(O[C@H]1C[C@H]1C4=C(CC[C@@]13C)C(=O)OC4)[C@@H]2O", "note": "[triptolide]", "values": [
      {"measurement": "more potent at inhibition of MMTV-luciferase induction than at binding inhibition", "setting": "human GR; compared with GR ligand binding inhibition", "result": "more than an order of magnitude"},
      {"measurement": "GR-mediated activation of target gene (MMTV-luciferase)", "setting": "human GR", "result": "inhibited"},
      {"measurement": "viability at 72 hr, 0.1 ng/ml", "setting": "in vitro", "result": 91.7, "unit": "%"},
      {"measurement": "viability at 72 hr, 10 ng/ml", "setting": "in vitro", "result": 35.8, "unit": "%"}
    ]},
    {"smiles": "C[C@@H]1C[C@H]2[C@@H]3CCC4=CC(=O)C=C[C@]4(C)[C@@]3(F)[C@@H](O)C[C@]2(C)[C@@]1(O)C(=O)CO", "note": "[dexamethasone]", "values": [
      {"measurement": "[3H]-thymidine incorporation of IDH4 cells", "setting": "IDH4 cells; dexamethasone 1 nM", "result": "35,554 cpm"},
      {"measurement": "[3H]-thymidine incorporation of IDH4 cells", "setting": "IDH4 cells; dexamethasone 10 nM", "result": "52,937 cpm"},
      {"measurement": "[3H]-thymidine incorporation of IDH4 cells", "setting": "IDH4 cells; dexamethasone 100 nM", "result": "105,357 cpm"},
      {"measurement": "[3H]-thymidine incorporation of IDH4 cells", "setting": "IDH4 cells; dexamethasone 1,000 nM", "result": "96,677 cpm"}
    ]},
    {"smiles": "CC(C)c1ccc2c(c1O)CC[C@H]1C3=C(CC[C@]21C)C(=O)OC3", "note": "[triptophenolide]", "values": [
      {"measurement": "GR-mediated activation of target gene (MMTV-luciferase)", "setting": "human GR", "result": "far less potent"},
      {"measurement": "dexamethasone dependent growth of IDH4 cells", "setting": "IDH4 cells", "result": "less active"}
    ]},
    {"smiles": "CC(C)[C@]12O[C@H]1[C@@H]1O[C@]13[C@]1(O[C@H]1C[C@H]1C4=C(C(=O)OC4)[C@@H](O)C[C@@]13C)[C@@H]2O", "note": "[tripdiolide]", "values": [
      {"measurement": "GR-mediated activation of target gene (MMTV-luciferase)", "setting": "human GR", "result": "inhibited"},
      {"measurement": "LPS / endotoxin induced PGE2 production by monocytes", "setting": "cyclooxygenase 2 (COX-2)", "result": "inhibited"},
      {"measurement": "dexamethasone dependent growth of IDH4 cells", "setting": "IDH4 cells", "result": "inhibited"},
      {"measurement": "PGE2 production by LPS-activated U937 cells that do not express COX-2", "setting": "U937 cells", "result": "had effect"}
    ]}
  ]
}
